One data set is described as follows: Solubility in FaSSIF. The settings on record: 23 °C, pH 6.5, fassif, thermodynamic from solid. The essentials: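 Concentration measured by HPLC-UV after solid compound was dosed at 5 mg/mL into pH 6.5 fasted-state simulated intestinal fluid containing taurocholate and lecithin (4:1 molar) and vortexed.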
The next data set can be described thus: PBS Stability Assay. In kind it is physicochemical. The settings on record: buffer, pH 7.4, 2 μM, phosphate buffered saline pH 7.4; read-out: PBS T½. The essentials:
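Half-life derives from first-order exponential decline of % compound remaining, quantified by LC-MS analyte/internal-standard peak-area ratio. Compound (2 μM final) sat in pH 7.4 phosphate-buffered saline, with aliquots quenched into acidified acetonitrile containing labetalol from 0 to 120 min.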

The nature of data set [1]: Intestinal S9 Assay (dog GI S9). As to conditions: 1.0 mg/mL S9 protein; for half-life at 2 μM: dog, TRIS pH 7.4, read-out: Dog GI S9 T½. Type of data set: in vitro ADME. The essentials: (§1)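 Pooled dog or human intestinal S9 at 1.0 mg/mL protein in TRIS buffer pH 7.4 with ZnCl2 and MgCl2; compound at 2 μM, sampled 0–120 min and quenched. Remaining parent by LC-MS peak area ratio; half-life from first-order exponential decline fit.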

Data set [2] is described as follows: Intestinal S9 Assay (human GI S9). The settings on record: 1.0 mg/mL S9 protein; for half-life at 2 μM: human, TRIS pH 7.4, read-out: Human GI S9 T½. Type of data set: in vitro ADME. The essentials: as §1
The next data set deals with HIV-1 IIIB strain. The experiment in a line: MT-4 HIV Wild Type Virus Infection Assay (IIIB Virus). In kind it is cell-based. The settings on record: Human immunodeficiency virus 1, IIIB, MT4, 120 h, MT-4 cells acutely infected with HIV-1 IIIB, 5 day incubation, Cell-titer glo. A digest of the protocol:
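MT-4 cells at 2×10^6 cells/ml in RPMI/10% FBS were acutely infected with HIV-1 IIIB for 1 h at 37° C, diluted 25× and added to serially diluted compounds. After 5 days at 37° C, viability read by CellTiter-Glo luminescence; EC50 from dose-response curves.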

In data set [3] the target is bovine intestinal alkaline phosphatase (Bos taurus (Bovine), UniProt P19111). Nature of the data set: BiALP: conversion by bovine intestinal alkaline phosphatase. In kind it is in vitro ADME. The settings on record: 2 μM substrate, 100 ng/mL iALP, Tris pH 7.8, 37° C., 60 minutes. A digest of the protocol:
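LC-MS (positive mode) quantified analyte/internal-standard peak area ratios, referenced to 2 μM parent product. This followed a 60 min, 37° C reaction of 2 μM substrate in Tris buffer pH 7.8 (1 mM MgCl2, 1 mM ZnCl2) containing 100 ng/mL iALP or buffer alone, run in triplicate.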

Converted amounts (≈) assume the structure as drawn.

Results on six compounds are retold here after patent US20250051375A1, “ANTI-HIV COMPOUNDS” (Gilead Sciences, Inc., priority 2023, published 2025).

Chain of bovine intestinal alkaline phosphatase (P19111 20-506): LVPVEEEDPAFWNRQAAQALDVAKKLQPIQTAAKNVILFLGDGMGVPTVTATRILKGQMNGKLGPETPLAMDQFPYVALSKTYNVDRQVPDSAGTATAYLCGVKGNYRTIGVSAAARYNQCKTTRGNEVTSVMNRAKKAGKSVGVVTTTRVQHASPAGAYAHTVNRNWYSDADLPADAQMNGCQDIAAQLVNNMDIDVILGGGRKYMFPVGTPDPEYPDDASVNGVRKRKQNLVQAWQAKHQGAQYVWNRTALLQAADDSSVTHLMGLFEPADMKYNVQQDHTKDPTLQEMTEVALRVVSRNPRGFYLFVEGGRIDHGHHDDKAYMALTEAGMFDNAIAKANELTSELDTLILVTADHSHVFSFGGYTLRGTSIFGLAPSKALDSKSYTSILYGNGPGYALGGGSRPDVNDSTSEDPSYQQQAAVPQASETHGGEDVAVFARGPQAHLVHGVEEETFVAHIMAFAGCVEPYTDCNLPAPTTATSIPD

`COC(=O)N[C@H](C(=O)N[C@@H](Cc1ccc(C#Cc2cnc(N3CC4CCC(C3)N4C3COC3)nc2)cc1)[C@H](CN(Cc1c(F)cc(-c2ccn(C(F)F)n2)cc1F)NC(=O)[C@@H](NC(=O)OC)C(C)(C)C(F)(F)F)OC(=O)CC(C)(C)c1c(CC(=O)N[C@@H](CCC(=O)O)C(=O)O)cc(C)cc1OP(=O)(O)O)C(C)(C)C(F)(F)F` [Example 66]: the concentration in solution in the data set “Solubility in FaSSIF” (solubility at 2 h) came to 3890 µg/mL (≈ 2410 µM). Moreover, the half-life at 2 μM in “PBS Stability Assay” worked out at 4.86 h. In addition, in data set [1] (2 μM, TRIS pH 7.4), the “Dog GI S9 [Intermediate A]” value turned out to be 965.9 nM and the “Dog GI S9 [Intermediate A] %” value is on record as 68.6%. Besides, the half-life at 2 μM in data set [1] came out at 0.912 h. For the same compound, in data set [2] (2 μM, TRIS pH 7.4), the “Human GI S9 [Intermediate A]” value was 367.6 nM and the “Human GI S9 [Intermediate A] %” value was 26%. In addition, the half-life at 2 μM in data set [2] amounted to 3.19 h. In the data set on HIV-1 IIIB strain, this compound showed an EC50 of 164 nM. In data set [3], the “[Compound]” value worked out at 1908 nM and the “biALP Intermediate A or [Amprenavir] (% of total)” value is 9.4 % of total. The “[Intermediate A] or [Amprenavir]” value in data set [3] (parent formed) is 197.1 nM.
On to `COC(=O)N[C@H](C(=O)N[C@@H](Cc1ccc(C#Cc2cnc(N3CC4CCC(C3)N4C3COC3)nc2)cc1)[C@H](CN(Cc1c(F)cc(-c2ccn(C(F)F)n2)cc1F)NC(=O)[C@@H](NC(=O)OC)C(C)(C)C(F)(F)F)OC(=O)CC(C)(C)c1c(CC(=O)NCC(=O)O)cc(C)cc1OP(=O)(O)O)C(C)(C)C(F)(F)F` [Example 74], for which the solubility at 2 h in the data set “Solubility in FaSSIF” was determined as 3340 µg/mL (≈ 2160 µM). For the same compound, the half-life at 2 μM in the data set “PBS Stability Assay” worked out at 11.5 h; in data set [1], 1.03 h; in data set [2] it was 3.93 h. The midpoint of the response in the data set with HIV-1 IIIB strain, the EC50, lay at 194 nM. Besides, the “[Compound]” value in data set [3] stood at 2044.2 nM.
In turn, `COC(=O)N[C@H](C(=O)N[C@@H](Cc1ccc(C#Cc2cnc(N3CC4CCC(C3)N4C3COC3)nc2)cc1)[C@H](CN(Cc1c(F)cc(-c2ccn(C(F)F)n2)cc1F)NC(=O)[C@@H](NC(=O)OC)C(C)(C)C(F)(F)F)OC(=O)CC(C)(C)c1c(CC(=O)N2CC[C@H](C(=O)O)C2)cc(C)cc1OP(=O)(O)O)C(C)(C)C(F)(F)F` [Example 76] registered a solubility at 2 h in the data set “Solubility in FaSSIF” of 2230 µg/mL (≈ 1410 µM). Besides, the half-life at 2 μM is 4.89 h in the data set “PBS Stability Assay”, 4.41 h in data set [1] and 6.16 h in data set [2]. In the data set with HIV-1 IIIB strain, this compound registered an EC50 of 333 nM. Moreover, the “[Compound]” value in data set [3] turned out to be 1777 nM.
`COC(=O)N[C@H](C(=O)N[C@@H](Cc1ccc(C#Cc2cnc(N3CC4CCC(C3)N4C3COC3)nc2)cc1)[C@H](CN(Cc1c(F)cc(-c2ccn(C(F)F)n2)cc1F)NC(=O)[C@@H](NC(=O)OC)C(C)(C)C(F)(F)F)OC(=O)CC(C)(C)c1c(CC(=O)NCP(=O)(O)O)cc(C)cc1OP(=O)(O)O)C(C)(C)C(F)(F)F` [Example 104] gave a solubility at 2 h in “Solubility in FaSSIF” of 2730 µg/mL (≈ 1730 µM). The half-life at 2 μM in “PBS Stability Assay” was 4.75 h; in data set [1], 0.15 h; in data set [2] it was 2.1 h. This compound yielded an EC50 in the data set with HIV-1 IIIB strain of 17.6 nM. The “[Compound]” value in data set [3] worked out at 1622.8 nM.
`COC(=O)N[C@H](C(=O)N[C@@H](Cc1ccc(C#Cc2cnc(N3CC4CCC(C3)N4C3COC3)nc2)cc1)[C@H](CN(Cc1c(F)cc(-c2ccn(C(F)F)n2)cc1F)NC(=O)[C@@H](NC(=O)OC)C(C)(C)C(F)(F)F)OC(=O)CC(C)(C)c1c(CC(=O)Nc2ccc(OC)c(S(=O)(=O)O)c2)cc(C)cc1OP(=O)(O)O)C(C)(C)C(F)(F)F` [Example 107] came in with a solubility at 2 h in “Solubility in FaSSIF” of 3440 µg/mL (≈ 2060 µM). Also, the half-life at 2 μM came out at 6.36 h in the data set “PBS Stability Assay”, 2.21 h in data set [1] and 4.11 h in data set [2]. This compound showed an EC50 with HIV-1 IIIB strain of 317 nM. Moreover, the “[Compound]” value in data set [3] was found to be 1468.1 nM.
With `COC(=O)N[C@H](C(=O)N[C@@H](Cc1ccc(C#Cc2cnc(N3CC4CCC(C3)N4C3COC3)nc2)cc1)[C@H](CN(Cc1c(F)cc(-c2ccn(C(F)F)n2)cc1F)NC(=O)[C@@H](NC(=O)OC)C(C)(C)C(F)(F)F)OC(=O)CC(C)(C)c1c(CC(=O)N2CC[C@@H](C(=O)O)C2)cc(C)cc1OP(=O)(O)O)C(C)(C)C(F)(F)F` [Example 112], the solubility at 2 h in “Solubility in FaSSIF” was 3790 µg/mL (≈ 2400 µM). Also, the half-life at 2 μM is 6.53 h in “PBS Stability Assay”, 6.05 h in data set [1] and 9.55 h in data set [2]. In the data set with HIV-1 IIIB strain, this compound returned an EC50 of 224 nM. In addition, the “[Compound]” value in data set [3] is on record as 1708.7 nM.

For orientation: solubility means the concentration that dissolves in the medium under given conditions. A low value points to a poorly soluble substance. The term EC50 denotes the concentration that produces a half-maximal response. Read a high EC50 as a need for much substance.
